Assay results taken from patent US20200017496A1 (priority 2017, published 2020).
In brackets after ≈: the same amount, converted by molar mass.

Assays:
[1] = Hydrolysis kinetics in buffers at room temperature by 19F-NMR, 1 mg/ml (Method 9); assay type: physicochemical
Procedure: Method 9: Hydrolysis Kinetics in Buffers at Room Temperature by ^19F-NMR, 1 mg/ml (Table 9)
Samples were prepared by solubilizing the ester compound (1 mg) in 900 μL of D2O and 100 μL of adequate buffer (Citrate 100 mM pH 5, Phosphate 100 mM pH 6 and Phosphate 100 mM pH 7.4). After a short sonication to fasten solubilization, the hydrolysis curve of the esters was generated by measuring and comparing the ^19F-NMR signal integrations of both species (ester compound disappearing and the acid form AF1 appearing). T10 and T50, times for respectively 10% and 50% of ester hydrolysis, were determined by interpolation of the hydrolysis curves.

[2] = Aqueous solubility by visual inspection (Method 12); details: for solubility: water, thermodynamic from solid
[3] = Hydrolysis kinetics in buffers at 37° C., 4 μg/ml (LC-MS, Method 8); assay type: physicochemical
Procedure: (§1) Method 8: Hydrolysis Kinetics in Buffers or Plasma Samples at 37° C., 4 μg/ml (Table 9)
(§2) Test compounds were prepared in DMSO at 0.8 mg/ml (relative to the acid AF1). To obtain a concentration of 4 μg/ml, one microliter of test compounds or AF1 was dissolved in 199 μl of buffer or blank plasma. For test compounds, plasma samples and/or buffer samples were kept at 37° C. during 2 h, and 20 μL of mixture were collected at 0 minutes (before heating to 37° C.), 5 minutes, 10 minutes, 20 minutes, 30 minutes, 45 minutes, 60 minutes and 120 minutes. For AF1, 20 μl of plasma samples and/or buffer samples were collected at 0 minutes. All plasma samples were protein precipitated using 3-25 fold volume of acetonitrile, shaken and centrifuged for 20 minutes at 15 000×g, diluted with a varying volume of deionized water. All buffer samples were diluted with a varying volume of deionized water/acetonitrile. The formation of AF1 from test compounds was quantified using LC-MS/MS.

in vitro = in vitro ADME; details: plasma
Procedure: as §1, §2

Compound	Hydrolysis at 1 mg/ml at room Temperature (NMR) T10 (10% degradation time) ([1]; Citrate 10 mM pH 5.0)	Hydrolysis at 1 mg/ml at room Temperature (NMR) T50 (50% degradation time) ([1]; Citrate 10 mM pH 5.0)	Hydrolysis at 1 mg/ml at room Temperature (NMR) T10 (10% degradation time) ([1]; Phosphate 10 mM pH 6.0)	Hydrolysis at 1 mg/ml at room Temperature (NMR) T50 (50% degradation time) ([1]; Phosphate 10 mM pH 6.0)	Hydrolysis at 1 mg/ml at room Temperature (NMR) T10 (10% degradation time) ([1]; Phosphate 10 mM pH 7.4)	Hydrolysis at 1 mg/ml at room Temperature (NMR) T50 (50% degradation time) ([1]; Phosphate 10 mM pH 7.4)	solubility [2]	Hydrolysis at 4 μg/ml at 37° C. (LC-MS) T50 (50% degradation time) ([3]; Citrate 10 mM pH 5.0)	Hydrolysis at 4 μg/ml at 37° C. (LC-MS) T50 (50% degradation time) ([3]; Phosphate 10 mM pH 6.0)	Hydrolysis at 4 μg/ml at 37° C. (LC-MS) T50 (50% degradation time) ([3]; Phosphate 10 mM pH 7.4)	half-life at 4 µg/ml (in vitro; dog)	half-life at 4 µg/ml (in vitro; human)	half-life at 4 µg/ml (in vitro; mouse)	half-life at 4 µg/ml (in vitro; rat)	Aqueous Solubility at room temperature in H2O ([2]; room temperature, H2O, visual inspection)
COCCOCC(C)(C)OC(=O)C(F)(F)ON1C(=O)N2C[C@H]1CC[C@H]2C(N)=O [Example 9]	192 min	20 h	138 min	17 h	21 min	2.6 h	6900 µg/mL (≈ 16.9 mM)								
COCC1(OC(=O)C(F)(F)ON2C(=O)N3C[C@H]2CC[C@H]3C(N)=O)CCOCC1 [Example 11, [4-(methoxymethyl)tetrahydropyran-4-yl]2-[[(2S,5R)-2-carbamoyl-7-oxo-1,6-diazabicyclo[3.2.1]octan-6-yl]oxy]-2,2-difluoro-acetate]	372 min	>41 h	120 min	16 h	15 min	1.3 h	1300 µg/mL (≈ 3.19 mM)								
CCCN(CCC)[C@H]1CC[C@H](OC(=O)C(F)(F)ON2C(=O)N3C[C@H]2CC[C@H]3C(N)=O)CC1 [Example 15, [4-(dipropylamino)cyclohexyl]2-[[(2S,5R)-2-carbamoyl-7-oxo-1,6-diazabicyclo[3.2.1]octan-6-yl]oxy]-2,2-difluoro-acetate]	7 min	0.567 h					> 1000 µg/mL	<1 min	<1 min	<1 min					
COCCCC(C)(C)OC(=O)C(F)(F)ON1C(=O)N2C[C@H]1CC[C@H]2C(N)=O [Example 14, (4-methoxy-1,1-dimethyl-butyl) 2-[[(2S,5R)-2-carbamoyl-7-oxo-1,6-diazabicyclo[3.2.1]octan-6-yl]oxy]-2,2-difluoro-acetate]	5 min	0.45 h	<25 min	<2 h	7 min	0.567 h	5100 µg/mL (≈ 13 mM)	<5 min	<5 min	<5 min					
CC1(OC(=O)C(F)(F)ON2C(=O)N3C[C@H]2CC[C@H]3C(N)=O)CCOCC1 [Example 8, (4-methyltetrahydropyran-4-yl) 2-[[(2S,5R)-2-carbamoyl-7-oxo-1,6-diazabicyclo[3.2.1]octan-6-yl]oxy]-2,2-difluoro-acetate]	402 min	43 h	162 min	21 h	40 min	4.5 h	1000 µg/mL (≈ 2.65 mM)	>120 min		39 min	8 min	11 min	< 1 min	< 1 min	
NC(=O)[C@@H]1CC[C@@H]2CN1C(=O)N2OC(F)(F)C(=O)OC1CCOCC1 [Example 12, tetrahydropyran-4-yl 2-[[(2S,5R)-2-carbamoyl-7-oxo-1,6-diazabicyclo[3.2.1]octan-6-yl]oxy]-2,2-difluoro-acetate]	15 min	1.3 h					500 to 1000 µg/mL (≈ 1.38 to 2.75 mM)	<1 min	<1 min	<1 min					
CCOC(=O)C(F)(F)ON1C(=O)N2C[C@H]1CC[C@H]2C(N)=O [AF1-Et]	9 min	1 h					> 1000 µg/mL	<1 min	<1 min	<1 min					
NC(=O)[C@@H]1CC[C@@H]2CN1C(=O)N2OC(F)(F)C(=O)OC1C2CC3CC(C2)CC1C3 (stereo partly drawn) [Example 3, 2-adamantyl 2-[[(2S,5R)-2-carbamoyl-7-oxo-1,6-diazabicyclo[3.2.1]octan-6-yl]oxy]-2,2-difluoro-acetate]															Low solubility
COCC(COC)OC(=O)C(F)(F)ON1C(=O)N2C[C@H]1CC[C@H]2C(N)=O [Example 13, [2-methoxy-1-(methoxymethyl)ethyl]2-[[(2S,5R)-2-carbamoyl-7-oxo-1,6-diazabicyclo[3.2.1]octan-6-yl]oxy]-2,2-difluoro-acetate]	8 min	0.933 h					> 1000 µg/mL	<1 min	<1 min	<1 min					
COCC(C)(C)OC(=O)C(F)(F)ON1C(=O)N2C[C@H]1CC[C@H]2C(N)=O [Example 7, (2-methoxy-1,1-dimethyl-ethyl) 2-[[(2S,5R)-2-carbamoyl-7-oxo-1,6-diazabicyclo[3.2.1]octan-6-yl]oxy]-2,2-difluoro-acetate]	210 min	27 h	120 min	20 h	37 min	3.2 h	6000 µg/mL (≈ 16.4 mM)	109 min		23 min	4 min	7 min	< 1 min	< 1 min	
COCC(C)(COC)OC(=O)C(F)(F)ON1C(=O)N2C[C@H]1CC[C@H]2C(N)=O [Example 10, [2-methoxy-1-(methoxymethyl)-1-methyl-ethyl]2-[[(2S,5R)-2-carbamoyl-7-oxo-1,6-diazabicyclo[3.2.1]octan-6-yl]oxy]-2,2-difluoro-acetate]	210 min	32 h	90 min	16 h	12 min	1 h	4500 µg/mL (≈ 11.4 mM)								
